The source of these data is US20190059378A1, “SYNERGISTIC FUNGICIDAL COMPOSITION FOR CONTROLLING PLANT DISEASES” (Sumitomo Chemical Company, Limited, priority 2016, published 2019).

Each structure is given as a SMILES string.

Experiment [1] has as its system Septoria leaf blotch (Mycosphaerella graminicola). In words: Test Example 3: growth of Septoria leaf blotch in YBG medium in microtiter plate (absorbance at 550 nm). The experiment is classed as cell-based. The conditions noted are these: single use, 18° C., four days. The procedure:
Each of the present compound 1-1 or the present compound 2 was dissolved into dimethyl sulfoxide such that each concentration of these compounds was adjusted to one hundred fifty times as much as the concentration indicated in the below-mentioned Table 3. The resultant agent solution was dispensed into each microtiter plate (with 96 wells) in 1 μl portion thereof per well. […] The plate was cultivated at 18° C. for four days, thereby allowing Septoria leaf blotch (Mycosphaerella graminicola) to undergo proliferation, and the absorbance at 550 nm of each well of the microtiter plate was then measured to examine a degree of growth of Septoria leaf blotch (hereinafter referred to as “treated group”).
Whereas, Septoria leaf blotch was proliferated similarly to the case of the treated group except that dimethyl sulfoxide was used instead of the agent solution, and the degree of the growth was examined (hereinafter referred to as “untreated group”). The efficacy was calculated from each of the obtained degree of growth of the treated group and the untreated group respectively by the following “Equation 1”. […]

For experiment [2], the system named is Brown rust (Puccinia recondita). Nature of the experiment: Test Example 4: foliar spray on wheat, Brown rust lesion area. To be noted: single use, foliar spray one day before inoculation. It counts as in vivo, Puccinia recondita on wheat (cultivar. Shirogane). The procedure: Five(5) parts of the present compound 1-1, 35 parts of a mixture of white carbon and ammonium polyoxyethylene alkyl ether sulfate (the weight ratio of 1:1) and 55 parts of water were mixed, and the mixture was then finely-ground by a wet grinding method to obtain a flowable comprising the present compound 1-1. Separately, the flowable comprising the present compound 2 was prepared according to the above-mentioned similar method except that the present compound 2 was used instead of the present compound 1-1.
Each of the flowable comprising the present compound 1-1 and the flowable comprising the present compound 2 was diluted with water and if necessary, the resultant dilute solutions were mixed each other such that each concentration of the respective compounds in the dilution solution was adjusted to the concentration indicated in Table 4, to prepare the dilution solutions, respectively.
A plastic pot was filled with soil, and thereto wheat (cultivar. Shirogane) was seeded, and the plants were grown in a greenhouse for ten days. The above-mentioned dilution solutions were sprayed to foliar parts so as to adhere adequately onto the surfaces of leaves of the above wheats. After spraying the dilute solution, the plants were air-dried, and one day after the application, an aqueous suspension of uredospores of Brown rust (Puccinia recondita) was inoculated by spraying thereto. After the inoculation, the plants were placed at 27° C. under humid condition for one day, and were then cultivated under lighting for ten days, and a lesion area was examined (hereinafter referred to as “lesion area of treated group”).
Whereas, wheats were cultivated similarly to the treated group except that no foliage application of the above-mentioned agent solution was done, and Brown rust were inoculated, and the lesion area thereof was examined (hereinafter referred to as “lesion area of the untreated group”).
From each of the lesion area of the treated group and the untreated group, respectively, the efficacy of the treated group was calculated by the following Equation 2. […]

In the case of `Cc1nnc(Cl)c(-c2c(F)cccc2F)c1-c1ccccc1` [Present compound 1-1], the “Efficacy (%)” value in experiment [1] (concentration in medium 0.005 ppm) turned out to be 4%; in experiment [2] (concentration in agent solution 0.0001 ppm) it was 20%; in experiment [2] (concentration in agent solution 0.01 ppm), 31%.

Consider `CC1CC(C)(C)c2c(F)ccc(NC(=O)c3cn(C)nc3C(F)F)c21` (centres unmarked) [Present compound 2], for which the “Efficacy (%)” value was 55% in experiment [1] (concentration in medium 0.05 ppm) and 15% in experiment [2] (concentration in agent solution 0.001 ppm).
